Experiment [1] concerns injected peptide (Ang II peptide variants, VARIOTOPEs). The experiment can be described thus: peptide based ELISA of sera from vaccinated mice: titers against the injected peptide. Format: in vivo. The note with it: BALB/c mice, peptide linked via N-terminal cysteine to KLH, Alum; ELISA titer ODmax/2, compared with Ang II treated animals (set as 100%). As for the experimental part: (§1) In each Figure, on the X-axis sera derived from animals immunized with indicated peptides are listed. On the Y-axis relative titers of induced sera are shown. Titers derived from Ang II treated animals were set as 100%. Titers were calculated as the sera dilution giving half-maximal binding (i.e. ODmax/2). White bars indicate titers against the peptides that were used for vaccination while black bars represent titers against the Ang II peptide.
Therefore, in a first set of experiments each position in the Ang II sequence was systematically replaced by amino acids having similar or different features (see Table 1 for position 2). Subsequently all these peptides were chemically linked via an additional N-terminal cysteine to the protein carrier keyhole limpet haemocyanin (KLH) and administrated to mice (BALB/c) together with Alum as adjuvant. […]
In the Figures (FIGS. 1 to 8 for position 1 to position 8) the results derived from these experiments are shown. […] Titers were calculated as the sera dilution giving half-maximal binding (i.e. ODmax/2). […]
(§2) All peptides listed in Table 2 were again chemically linked via the N-terminus to KLH adsorbed to Alum and injected s.c. into experimental animals (BALB/c mice). Sera were analyzed by ELISA and antibody responses induced by the peptide variants were compared to that one induced by the original peptide.

The test system of another experiment is Ang II peptide. The experiment can be described thus: peptide based ELISA of sera from vaccinated mice: binding capacity/titers against the Ang II peptide. It counts as in vivo. The conditions noted are these: BALB/c mice, peptide-KLH, Alum; for reactivity/titer of induced sera against Ang II: ELISA titer ODmax/2, compared with sera evoked by Ang II peptide (set as 100%). As for the experimental part:
as §1
Therefore, in a first set of experiments each position in the Ang II sequence was systematically replaced by amino acids having similar or different features (see Table 1 for position 2). Subsequently all these peptides were chemically linked via an additional N-terminal cysteine to the protein carrier keyhole limpet haemocyanin (KLH) and administrated to mice (BALB/c) together with Alum as adjuvant. Sera from vaccinated mice were used to analyze the immunogenicity of indicated peptides. For this purpose a peptide based ELISA assay was used to define sera titers against the injected peptide (i.e. Ang II peptide variants, VARIOTOPEs) as well as to define the binding capacity of the obtained sera against the Ang II peptide.
In the Figures (FIGS. 1 to 8 for position 1 to position 8) the results derived from these experiments are shown. On the X-axis sera derived from animals immunized with indicated peptides are listed. On the Y-axis relative titers of induced sera are shown. Titers derived from Ang II treated animals were set as 100%. Titers were calculated as the sera dilution giving half-maximal binding (i.e. ODmax/2). White bars indicate titers against the peptides that were used for vaccination while black bars represent titers against the Ang II peptide.
as §2

For experiment [2] the following is noted: % of the activity of Ang II; cited from earlier work.

The source of these data is patent US9029327B2, “Vaccine” (Affiris AG, priority 2009, dated 2015).

No end group written: not given here.

In the case of “peptide variant with G on position 1: Ang II peptide CDRVYIHPF with G on position 1, KLH-linked; compare GRVYIHPF (SEQ ID NO:6)”, the “sera titer against the injected peptide” value in experiment [1] is listed as “almost twice as high”. Besides, in the experiment on Ang II peptide (versus sera of Ang II treated animals), the “increase of reactivity against Ang II” value is recorded as roughly 50%.

For the substance “C-DAVYIAAF (CDAVYIAAF; also: C-terminal modification)”, the “sera titer against the injected peptide” value in experiment [1] is listed as “lower compared to the titers induced by the other antigens”. Besides, the “reactivity/titer of induced sera against Ang II” value (shortened to “reactivity/titer of induced sera”) in the experiment with Ang II peptide is recorded as “diminished reactivity”.

As to “C-DRVYIHAA (CDRVYIHAA; also: C-terminal modification)”, in the experiment on Ang II peptide, the “reactivity/titer of induced sera” value is “diminished reactivity”.

With “C-DAVYIAAA (CDAVYIAAA; also: C-terminal modification)”, the “reactivity/titer of induced sera” value with Ang II peptide was “diminished reactivity”.

Regarding “C-DRAAAHAF (CDRAAAHAF; also: C-terminal modification)”, the “reactivity/titer of induced sera” value with Ang II peptide is reported as “diminished reactivity”.

For “C-DAVYIAPF (CDAVYIAPF; also: C-terminal modification)”, in the experiment with Ang II peptide, the “reactivity/titer of induced sera” value is given as “diminished reactivity”.

Take “C-DRVYAAPF (CDRVYAAPF; also: C-terminal modification)”: the “reactivity/titer of induced sera” value in the experiment on Ang II peptide is reported as “diminished reactivity”.

With Ang IV, the “activity relative to Ang II” value in experiment [2] is “approximately 40%”.
